Data published in US6447748B1, “Benzamide compounds for cancer imaging and therapy” (Research Corporation Technologies, Inc., priority 1993, dated 2002).

How the values were obtained:
[1] = test system: human A2058 melanoma xenografts; test: Biodistribution in nude mice xenografted with human melanotic melanoma; type: in vivo, Balb/c nu/nu mice; conditions: for RATIO Tumor/Blood / RATIO Tumor/Muscle / Biodistribution Blood / Biodistribution Bone / Biodistribution Brain / Biodistribution Heart / Biodistribution Intestine / Biodistribution Kidney / Biodistribution Liver / Biodistribution Lung / Biodistribution Muscle / Biodistribution Spleen / Biodistribution Stomach / Biodistribution Thyroid / Biodistribution Tumor: nude mice, human melanotic melanoma, mean (std. dev.); for Biodistribution Blood / Biodistribution Bone / Biodistribution Brain / Biodistribution Heart / Biodistribution Intestine / Biodistribution Kidney / Biodistribution Liver / Biodistribution Lung / Biodistribution Muscle / Biodistribution Spleen / Biodistribution Stomach / Biodistribution Thyroid / Biodistribution Tumor: n = 6
Experimental: A2058 tumor cells, derived from a brain metastasis of human malignant melanoma (Todaro et al. 1980 Proc. Natl. Acad. Sci. USA 77:5258) were obtained from the National Institutes of Health. […] Suspension of 5×10^6 cells (viability greater than 95%) in 0.2 mL of medium were inoculated subcutaneously in female Balb/c nu/nu mice. After about two weeks, solid tumors of about 1 cm in diameter appeared in approximately 85% of all inoculated mice. […] Balb/c nu/nu mice (17-22 g) were injected intravenously with 0.2 ml of a saline solution containing [^125I]PAB (5-6 μCi). […] The values obtained were normalized to a mouse weighing 20 g. The differences between [^125I]PAB and [^125I]DAB were examined by Student's unpaired t tests.

[2] = test system: human squamous cell carcinoma xenografts; test: Biodistribution in nude mice xenografted with human squamous cell carcinoma; type: in vivo, Balb/c nu/nu mice; conditions: for Biodistribution Blood / Biodistribution Bone / Biodistribution Brain / Biodistribution Heart / Biodistribution Intestine / Biodistribution Kidney / Biodistribution Liver / Biodistribution Lung / Biodistribution Spleen / Biodistribution Stomach / Biodistribution Thyroid / Biodistribution Tumor: nude mice, human squamous cell carcinoma, mean (std. dev.), n = 6
Experimental: Non-small cell lung carcinoma cell lines NCI-157, NCI-838 and NCI-1299 were obtained from the National Cancer Institute. The NCI-157 cell line is a squamous carcinoma cell line, while NCI-838 is an adenocarcinoma cell line and NCI-1299 is a large cell lung carcinoma cell. […] Suspension of 5×10^6 cells (viability greater than 95%) in 0.2 mL of medium were inoculated subcutaneously in female Balb/c nu/nu mice. After about two weeks, solid tumors of about 1 cm in diameter appeared in approximately 85% of all inoculated mice. […] Balb/c nu/nu mice (17-22 g) were injected intravenously with 0.2 ml of a saline solution containing [^125I]PAB (5-6 μCi). […] The values obtained were normalized to a mouse weighing 20 g.

RATIO Tumor/Blood ([1]; 1 Hour): 5.68 (2.75)
RATIO Tumor/Muscle ([1]; 1 Hour): 5.33 (1.65)
Biodistribution Blood ([1]; 1 Hour): 1.03 (.318) % ID/g
Biodistribution Bone ([1]; 1 Hour): 1.04 (.476) % ID/g
Biodistribution Brain ([1]; 1 Hour): 1.04 (.0855) % ID/g
Biodistribution Heart ([1]; 1 Hour): 1.67 (.210) % ID/g
Biodistribution Intestine ([1]; 1 Hour): 5.04 (1.47) % ID/g
Biodistribution Kidney ([1]; 1 Hour): 4.63 (.905) % ID/g
Biodistribution Liver ([1]; 1 Hour): 12.7 (1.69) % ID/g
Biodistribution Lung ([1]; 1 Hour): 6.32 (1.55) % ID/g
Biodistribution Muscle ([1]; 1 Hour): 0.988 (.125) % ID/g
Biodistribution Spleen ([1]; 1 Hour): 3.46 (.206) % ID/g
Biodistribution Stomach ([1]; 1 Hour): 3.84 (1.98) % ID/g
Biodistribution Thyroid ([1]; 1 Hour): 5.68 (1.02) % ID/g
Biodistribution Tumor ([1]; 1 Hour): 5.18 (1.31) % ID/g
RATIO Tumor/Blood ([1]; 6 Hour): 28.1 (5.84)
RATIO Tumor/Muscle ([1]; 6 Hour): 33.3 (14.0)
Biodistribution Blood ([1]; 6 Hour): 1.03 (0.197) % ID/g
Biodistribution Bone ([1]; 6 Hour): 0.100 (.0297) % ID/g
Biodistribution Brain ([1]; 6 Hour): 0.132 (.0204) % ID/g
Biodistribution Heart ([1]; 6 Hour): 0.150 (.0329) % ID/g
Biodistribution Intestine ([1]; 6 Hour): 0.423 (.0963) % ID/g
Biodistribution Kidney ([1]; 6 Hour): 0.435 (.0909) % ID/g
Biodistribution Liver ([1]; 6 Hour): 3.74 (.427) % ID/g
Biodistribution Lung ([1]; 6 Hour): 0.458 (.0993) % ID/g
Biodistribution Muscle ([1]; 6 Hour): 0.0967 (.0356) % ID/g
Biodistribution Spleen ([1]; 6 Hour): 0.260 (.0990) % ID/g
Biodistribution Stomach ([1]; 6 Hour): 0.475 (.164) % ID/g
Biodistribution Thyroid ([1]; 6 Hour): 0.400 (.124) % ID/g
Biodistribution Tumor ([1]; 6 Hour): 2.83 (.388) % ID/g
RATIO Tumor/Blood ([1]; 24 Hour): 15.5 (4.69)
RATIO Tumor/Muscle ([1]; 24 Hour): 39.7 (9.61)
Biodistribution Blood ([1]; 24 Hour): 0.0350 (0.0084) % ID/g
Biodistribution Bone ([1]; 24 Hour): 0.0133 (.0052) % ID/g
Biodistribution Brain ([1]; 24 Hour): 0.0033 (.0052) % ID/g
Biodistribution Heart ([1]; 24 Hour): 0.0233 (.0175) % ID/g
Biodistribution Intestine ([1]; 24 Hour): 0.123 (.0717) % ID/g
Biodistribution Kidney ([1]; 24 Hour): 0.065 (.0197) % ID/g
Biodistribution Liver ([1]; 24 Hour): 1.12 (.232) % ID/g
Biodistribution Lung ([1]; 24 Hour): 0.0633 (.0273) % ID/g
Biodistribution Muscle ([1]; 24 Hour): 0.0150 (.0084) % ID/g
Biodistribution Spleen ([1]; 24 Hour): 0.0350 (.023) % ID/g
Biodistribution Stomach ([1]; 24 Hour): 0.445 (.386) % ID/g
Biodistribution Tumor ([1]; 24 Hour): 0.553 (.241) % ID/g
amount in tumors relative to livers ([1]; 24 hrs., melanoma xenograft): about half
Biodistribution Blood ([2]; 1 hr.): 1.35 (0.42) % ID/g
Biodistribution Bone ([2]; 1 hr.): 1.85 (0.22) % ID/g
Biodistribution Brain ([2]; 1 hr.): 1.57 (0.05) % ID/g
Biodistribution Heart ([2]; 1 hr.): 2.21 (0.16) % ID/g
Biodistribution Intestine ([2]; 1 hr.): 5.64 (0.58) % ID/g
Biodistribution Kidney ([2]; 1 hr.): 7.64 (0.35) % ID/g
Biodistribution Liver ([2]; 1 hr.): 13.77 (0.72) % ID/g
Biodistribution Lung ([2]; 1 hr.): 6.38 (0.89) % ID/g
Biodistribution Spleen ([2]; 1 hr.): 3.58 (0.28) % ID/g
Biodistribution Stomach ([2]; 1 hr.): 5.41 (0.53) % ID/g
Biodistribution Thyroid ([2]; 1 hr.): 8.22 (0.72) % ID/g
Biodistribution Tumor ([2]; 1 hr.): 5.13 (0.74) % ID/g
Biodistribution Blood ([2]; 6 hr.): 0.301 (0.04) % ID/g
Biodistribution Bone ([2]; 6 hr.): 0.21 (0.01) % ID/g
Biodistribution Brain ([2]; 6 hr.): 0.23 (0.05) % ID/g
Biodistribution Heart ([2]; 6 hr.): 0.38 (0.11) % ID/g
Biodistribution Intestine ([2]; 6 hr.): 1.34 (0.27) % ID/g
Biodistribution Kidney ([2]; 6 hr.): 1.07 (0.16) % ID/g
Biodistribution Liver ([2]; 6 hr.): 5.84 (0.51) % ID/g
Biodistribution Lung ([2]; 6 hr.): 1.07 (0.14) % ID/g
Biodistribution Spleen ([2]; 6 hr.): 0.51 (0.08) % ID/g
Biodistribution Stomach ([2]; 6 hr.): 2.7 (0.98) % ID/g
Biodistribution Thyroid ([2]; 6 hr.): 1.48 (0.55) % ID/g
Biodistribution Tumor ([2]; 6 hr.): 2.17 (0.09) % ID/g
Biodistribution Blood ([2]; 24 hr.): 0.027 (0.00) % ID/g
Biodistribution Brain ([2]; 24 hr.): 0.00 (0.00) % ID/g
Biodistribution Heart ([2]; 24 hr.): 0.00 (0.00) % ID/g
Biodistribution Intestine ([2]; 24 hr.): 0.05 (0.01) % ID/g
Biodistribution Kidney ([2]; 24 hr.): 0.05 (0.00) % ID/g
Biodistribution Liver ([2]; 24 hr.): 1.25 (0.10) % ID/g
Biodistribution Lung ([2]; 24 hr.): 0.03 (0.00) % ID/g
Biodistribution Spleen ([2]; 24 hr.): 0.01 (0.00) % ID/g
Biodistribution Stomach ([2]; 24 hr.): 0.15 (0.02) % ID/g
Biodistribution Thyroid ([2]; 24 hr.): 0.03 (0.01) % ID/g
Biodistribution Tumor ([2]; 24 hr.): 0.18 (0.02) % ID/g
amount in livers relative to tumors ([2]; 24 hrs., squamous cell carcinoma xenograft): about six-fold
Compound: CCN(CC)CCNC(=O)c1ccc([125I])cc1 [[^125I]DAB, ^125I-N-(diethylaminoethyl)4-iodobenzamide, reference compound]
